Measured values from patent US12053473B2, “Benzylamino substituted quinazolines and derivatives as SOS1 inhibitors” (priority 2016, dated 2024).

Molecular target: SOS1 and KRAS G12D (protein-protein interaction) (Homo sapiens, UniProt Q07889)
Experiment: KRAS::SOS1 AlphaScreen binding assay
Details: not given
Description: KRAS::SOS1 AlphaScreen Binding Assay
Low IC50 values are indicative of high potency of the SOS1 inhibitor compound in this assay setting:
10 nM (final assay concentration) KRAS G12D, 10 μM (final assay concentration) GDP and 5 nM (final assay concentration) GST-SOS1 are mixed in assay buffer prior to use and kept at room temperature.
AlphaLSA Glutathione Acceptor Beads and AlphaScreen Streptavidin Donor Beads are mixed in assay buffer at a concentration of 10 μg/mL (final assay concentration) each prior to use and kept at room temperature.
Compounds are diluted to a final start concentration of 100 μM and are tested in duplicate. […] For compound a start concentration of 100 μM, 150 nL of compound solution is transferred per well in 11 concentrations in duplicate with serial 1:5 dilutions.
The assay is run using a fully automated robotic system in a darkened room below 100 Lux. 10 μL of KRAS::SOS1 GDP mix is added into columns 1-24 to the 150 nL of compound solution (final dilution in the assay 1:100, final DMSO concentration 1%).
After a 30 minute incubation time 5 μL of bead mix is added into columns 1-23. Plates are kept at room temperature in a darkened incubator. After a further 60 minute incubation, the signal is measured using a PerkinElmer Envision HTS Multilabel Reader using the AlphaScreen specifications from PerkinElmer. Each plate contains the following controls: • diluted DMSO+KRAS::SOS1 GDP mix+bead mix • diluted DMSO+KRAS::SOS1 GDP mix Result Calculation:
IC50 values are calculated and analyzed using a 4 parametric logistic model.

In order of falling IC50:
1. COc1cc2nc(C)nc(N[C@H](C)c3cccc(C(F)(F)F)c3)c2cc1[C@]1(O)CC[C@@H](O)CC1 [I-57]  10 nM
2. Cc1nc(N[C@H](C)c2cccc(C(F)(F)F)c2F)c2cc([C@]3(O)CC[C@@H](O)CC3)ccc2n1 [I-61]  8 nM
3. COc1cc2nc(C)nc(N[C@H](C)c3cccc(C(F)(F)F)c3)c2cc1[C@]1(O)CC[C@@H](C(=O)N(C)CCO)CC1 [I-75]  7 nM

Same assay, conditions: assay buffer with 100 μM EDTA (values marked with an asterisk); read-out: IC50 (SOS1)

In order of rising IC50:
1. Cc1cccc([C@@H](C)Nc2nc(C)nc3ccc(C4CC[S+]([O-])CC4)cc23)c1 (stereo partly shown) [I-160]  22 nM
2. Cc1nc(N[C@H](C)c2cccc(C(F)(F)F)c2)c2cc(C3CCNCC3)ccc2n1 [I-182]  22 nM

Same assay, conditions: assay buffer without EDTA (values not marked with an asterisk); read-out: IC50 (SOS1)

In order of falling IC50:
1. Cc1cccc([C@@H](C)Nc2nc(C)nc3cc(C)c(C4CCNCC4)cc23)c1 [I-176]  46 nM
2. Cc1nc(N[C@H](C)c2cc(N)cc(C(F)(F)F)c2)c2cc([C@H]3CC[C@@H](O)CC3)ccc2n1 [I-66]  43 nM
3. COc1cc2nc(C)nc(N[C@H](C)c3cccc(C)c3)c2cc1-c1ccc(C(=O)N(C)C)nc1 [I-190]  34 nM
4. CC(=O)O[C@H]1CC[C@](O)(c2ccc3nc(C)nc(N[C@H](C)c4cccc(C(F)(F)F)c4)c3c2)CC1 [I-67]  26 nM
5. CC(=O)N1CCC2(CC1)CC(O)(c1ccc3nc(C)nc(N[C@H](C)c4cccc(C(F)(F)F)c4)c3c1)C2 [I-51]  23 nM
6. Cc1nc(N[C@H](C)c2cccc(C(F)(F)F)c2)c2cc(C3(O)CCN(C(=O)N(C)C)CC3)ccc2n1 [I-50]  23 nM
7. Cc1nc(N[C@H](C)c2cccc(C(F)(F)F)c2)c2cc(C3(O)CCS(=O)(=O)CC3)ccc2n1 [I-21]  20 nM
8. CC(=O)N1CCC(O)(c2ccc3nc(C)nc(N[C@H](C)c4cccc(C(F)(F)F)c4)c3c2)CC1 [I-48]  15 nM
9. Cc1nc(N[C@H](C)c2cccc(C(F)(F)F)c2)c2cc(C3CCN(CC(=O)O)CC3)ccc2n1 [I-293]  11 nM
10. Cc1nc(N[C@H](C)c2cc(N)cc(C(F)(F)F)c2)c2cc(O[C@H]3CCOC3)c(C)cc2n1 [I-10]  7 nM
11. COc1cc2nc(C)nc(N[C@H](C)c3cccc(C(F)(F)F)c3F)c2cc1C1(O)CCC(C(=O)N(C)C)CC1 (stereo partly shown) [I-77]  5 nM
12. CCC(=O)N1CC[C@H](Oc2cc3c(N[C@H](C)c4cc(N)cc(C(F)(F)F)c4)nc(C)nc3cc2C)C1 [I-53]  3 nM
13. CC(=O)N1CC[C@H](Oc2cc3c(N[C@H](C)c4cc(N)cc(C(F)(F)F)c4)nc(C)nc3cc2C)C1 [I-9]  3 nM
14. COc1cc2nc(C)nc(N[C@H](C)c3cc(N)cc(C(F)(F)F)c3)c2cc1O[C@H]1CCN(C(C)=O)C1 [I-7]  3 nM

Same assay, conditions: read-out: IC50 (SOS1)

In order of falling IC50:
1. COCCN(C)C(=O)[C@H]1CC[C@@H](c2cc3c(N[C@H](C)c4cc(N)cc(C(F)(F)F)c4)nc(C)nc3cc2OC)CC1 [I-358]  49 nM
2. CNC(=O)CC(C)c1ccc2nc(C)nc(N[C@H](C)c3cccc(C(F)(F)F)c3)c2c1 (stereo partly shown) [I-375]  36 nM
3. Cc1cccc([C@@H](C)Nc2nc(C)nc3ccc([C@H]4CC[C@H](C(=O)N5CC(C#N)C5)CC4)cc23)c1 [I-265]  36 nM
4. Cc1nc(N[C@H](C)c2cccc(C(F)(F)F)c2)c2cc(-c3ccc(=O)n(C)c3)c(C)cc2n1 [I-109]  25 nM
5. CC(=O)N1CCC(c2cc3c(N[C@H](C)c4cccc(C)c4)nc(C)nc3cc2C)CC1 [I-271]  24 nM
6. COc1cc2nc(C)nc(N[C@H](C)c3cc(N)cc(C(F)(F)F)c3)c2cc1-c1ccc(=O)n(C(C)C)c1 [I-351]  13 nM
7. Cc1nc(N[C@H](C)c2cc(N)cc(C(F)(F)F)c2)c2cc(C3=CCS(=O)(=O)CC3)cc(C)c2n1 [I-364]  11 nM
8. COc1cc2nc(C)nc(N[C@H](C)c3cccc(C)c3)c2cc1[C@H]1CC[C@H](C(=O)N(C)C)CC1 [I-267]  9 nM
9. COc1cc2nc(C)nc(N[C@H](C)c3cccc(C(F)(F)F)c3)c2cc1C1CCN(C(C)=O)CC1 [I-308]  9 nM
10. Cc1nc(N[C@H](C)c2cc(N)cc(C(F)(F)F)c2)c2cc(-c3cnn(CC(=O)N(C)C)c3)ccc2n1 [I-86]  8 nM
11. CONC(=O)CC(C)c1cc2c(N[C@H](C)c3cccc(C(F)(F)F)c3)nc(C)nc2cc1C (stereo partly shown) [I-378]  8 nM
12. Cc1nc(N[C@H](C)c2cc(N)cc(C(F)(F)F)c2)c2cc([C@H]3CC[C@@H](C(=O)N4CCN(C)CC4)CC3)cc(C)c2n1 [I-362]  8 nM
13. COc1cc2nc(C)nc(N[C@H](C)c3cccc(C(F)(F)F)c3C)c2cc1[C@H]1CC[C@H](C(=O)N(C)C)CC1 [I-296]  7 nM
14. Cc1nc(N[C@H](C)c2cc(N)cc(C(F)(F)F)c2)c2cc(-c3cc4n(n3)CCC(=O)N4)ccc2n1 [I-90]  7 nM
15. Cc1nc(N[C@H](C)c2cc(N)cc(C(F)(F)F)c2F)c2cc(C3CCS(=O)(=O)CC3)ccc2n1 [I-310]  7 nM
16. Cc1nc(N[C@H](C)c2cc(N)cc(C(F)(F)F)c2)c2cc(-c3ccn(C)c(=O)c3)c(C)cc2n1 [I-348]  7 nM
17. Cc1nc(N[C@H](C)c2cc(N)cc(C(F)(F)F)c2)c2cc([C@H]3CC[C@H](C(=O)N(C)[C@@H]4CCOC4)CC3)ccc2n1 [I-242]  5 nM
18. CCn1ccc(-c2cc3c(N[C@H](C)c4cc(N)cc(C(F)(F)F)c4)nc(C)nc3cc2C)cc1=O [I-349]  5 nM
19. Cc1nc(N[C@H](C)c2cc(N)cc(C(F)(F)F)c2)c2cc([C@H]3CC[C@H](C(=O)N(C)C[C@@H](C)O)CC3)ccc2n1 [I-256]  3 nM
20. CCN(C)C(=O)[C@H]1CC[C@H](c2ccc3nc(C)nc(N[C@H](C)c4cc(N)cc(C(F)(F)F)c4)c3c2)CC1 [I-238]  3 nM
21. Cc1nc(N[C@H](C)c2cc(N)cc(C(F)(F)F)c2)c2cc(C3CCN(C(=O)CN(C)C)CC3)ccc2n1 [I-313]  3 nM
22. COCC(=O)N1CCC(c2cc3c(N[C@H](C)c4cc(N)cc(C(F)(F)F)c4)nc(C)nc3cc2C)CC1 [I-315]  3 nM
23. COc1cc2nc(C)nc(N[C@H](C)c3cc(N)cc(C(F)(F)F)c3)c2cc1[C@H]1CC[C@H](C(=O)N2CCOCC2)CC1 [I-359]  2 nM
24. COc1cc2nc(C)nc(N[C@H](C)c3cc(N)cc(C(F)(F)F)c3C)c2cc1[C@H]1CC[C@H](C(=O)N(C)C)CC1 [I-248]  2 nM
25. COc1cc2nc(C)nc(N[C@H](C)c3cccc(C(F)(F)CO)c3)c2cc1C1=CCC(C(=O)N(C)C)CC1 (stereo partly shown) [I-285]  2 nM
26. Cc1nc(N[C@H](C)c2cc(N)cc(C(F)(F)F)c2)c2cc([C@H]3CC[C@H](C(=O)N(C)C[C@H](C)O)CC3)ccc2n1 [I-254]  2 nM

Same assay, conditions: read-out: IC50 (SOS1); assay buffer without EDTA (values not marked with an asterisk)

`COc1cc2nc(C)nc(N[C@H](C)c3cccc(C(F)(F)F)c3)c2cc1C1(O)CCC(C(=O)N(C)C[C@H](C)O)CC1` (stereo partly shown) [I-73] gave an IC50 of 41 nM.

Same assay, conditions: values marked with * in the table; read-out: IC50 (SOS1)

In order of falling IC50:
1. Cc1nc(N[C@H](C)c2cccc(C(F)(F)F)c2)c2cc(-c3ccc(=O)n(CC(N)=O)c3)ccc2n1 [I-343]  40 nM
2. Cc1nc(N[C@H](C)c2cccc(C(F)(F)F)c2)c2cc(-c3ccn(CC(=O)N(C)C)c(=O)c3)ccc2n1 [I-337]  37 nM
3. Cc1cccc([C@@H](C)Nc2nc(C)nc3ccc(-c4ccc(=O)n(CC(=O)N(C)C)c4)cc23)c1 [I-336]  26 nM
4. Cc1cccc([C@@H](C)Nc2nc(C)nc3ccc(-c4cc5n(n4)CCC(=O)N5)cc23)c1 [I-87]  18 nM
5. Cc1nc(N[C@H](C)c2cc(N)cc(C(F)(F)F)c2)c2cc(-c3ccc(=O)n(C)c3)ccc2n1 [I-104]  6 nM
6. Cc1cccc([C@@H](C)Nc2nc(C)nc3ccc(-c4ccn(CC(=O)N(C)C)c(=O)c4)cc23)c1 [I-340]  1 nM
